Measured values as given in PubChem BioAssay AID1963985 (Molecular Pharmacology Branch, DTP, NCI, 2024).
Each block holds one compound with its values, some of them ahead of it.

Test system: 252836-082-R-J2-PDC tumor spheroids, viability
Assay: Anticancer human tumor 252836-082-R-J2-PDC patient-derived head and neck squamous cell carcinoma cell line growth inhibition [PI3K]
Conditions: spheroids with HUVEC and MSC; for IC50: curve of first compound; for viability, T/C: stronger effect = lower value
Outline: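 Stroma-containing spheroids: tumor line, pooled-donor HUVEC, hMSC. Treatments: targeted agents with PI3K inhibitors. Dosing: clinically relevant, half-log spacing, 10 microM ceiling without known Cmax. Read-out: cell viability.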

[1] = second compound 0.00316 µM, first compound 0.0316 µM
[2] = second compound 0.00316 µM, first compound 0.1 µM
[3] = second compound 0.01 µM, first compound 0.0316 µM
[4] = second compound 0.01 µM, first compound 0.1 µM
[5] = second compound 0.0316 µM, first compound 0.000316 µM
[6] = second compound 0.0316 µM, first compound 0.001 µM
[7] = second compound 0.0316 µM, first compound 0.00316 µM
[8] = second compound 0.0316 µM, first compound 0.01 µM
[9] = second compound 0.0316 µM, first compound 0.0316 µM
[10] = second compound 0.0316 µM, first compound 0.1 µM
[11] = second compound 0.1 µM, first compound 0.000316 µM
[12] = second compound 0.1 µM, first compound 0.001 µM
[13] = second compound 0.1 µM, first compound 0.00316 µM
[14] = second compound 0.1 µM, first compound 0.01 µM
[15] = second compound 0.1 µM, first compound 0.0316 µM
[16] = second compound 0.1 µM, first compound 0.1 µM
[17] = second compound 0.316 µM, first compound 0.000316 µM
[18] = second compound 0.316 µM, first compound 0.001 µM
[19] = second compound 0.316 µM, first compound 0.00316 µM
[20] = second compound 0.316 µM, first compound 0.01 µM
[21] = second compound 0.316 µM, first compound 0.0316 µM
[22] = second compound 0.316 µM, first compound 0.1 µM
[23] = second compound 1 µM, first compound 0.000316 µM
[24] = second compound 1 µM, first compound 0.001 µM
[25] = second compound 1 µM, first compound 0.00316 µM
[26] = second compound 1 µM, first compound 0.01 µM
[27] = second compound 1 µM, first compound 0.0316 µM
[28] = second compound 1 µM, first compound 0.1 µM
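Note: spheroids exposed to agents for seven days before readout.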
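Throughout, for viability, T/C: percent of vehicle DMSO control viability so 100% = untreated growth.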

IC50 (second compound 0.00316 µM): 90.6 nM | IC50 (second compound 0.01 µM): 44.1 nM | IC50 (second compound 0.0316 µM): 13 nM | IC50 (second compound 0.1 µM): < 0.316 nM | IC50 (second compound 0.316 µM): < 0.316 nM | IC50 (second compound 1 µM): < 0.316 nM
SMILES: Cn1ncnc1[C@H]1c2n[nH]c(=O)c3cc(F)cc(c23)N[C@@H]1c1ccc(F)cc1 + COc1c(OCCCN2CCOCC2)ccc2c3n(c(=NC(=O)c4cnc(N)nc4)nc12)CCN3
viability, T/C (second compound 0.00316 µM, first compound 0.000316 µM): 84.3% | viability, T/C (second compound 0.00316 µM, first compound 0.001 µM): 88.2% | viability, T/C (second compound 0.00316 µM, first compound 0.00316 µM): 86.4% | viability, T/C (second compound 0.00316 µM, first compound 0.01 µM): 72.1% | viability, T/C [1]: 59.7% | viability, T/C [2]: 48.6% | viability, T/C (second compound 0.01 µM, first compound 0.000316 µM): 80.1% | viability, T/C (second compound 0.01 µM, first compound 0.001 µM): 67.5% | viability, T/C (second compound 0.01 µM, first compound 0.00316 µM): 80.7% | viability, T/C (second compound 0.01 µM, first compound 0.01 µM): 72.8% | viability, T/C [3]: 55.6% | viability, T/C [4]: 36.2% | viability, T/C [5]: 49.3% | viability, T/C [6]: 60.8% | viability, T/C [7]: 52% | viability, T/C [8]: 52.1% | viability, T/C [9]: 44.2% | viability, T/C [10]: 24.4% | viability, T/C [11]: 33.4% | viability, T/C [12]: 35.1% | viability, T/C [13]: 34.8% | viability, T/C [14]: 30.9% | viability, T/C [15]: 19% | viability, T/C [16]: 11.8% | viability, T/C [17]: 19.1% | viability, T/C [18]: 16% | viability, T/C [19]: 13.6% | viability, T/C [20]: 9.81% | viability, T/C [21]: 8.53% | viability, T/C [22]: 6.35% | viability, T/C [23]: 4.84% | viability, T/C [24]: 4.33% | viability, T/C [25]: 3.36% | viability, T/C [26]: 2.93% | viability, T/C [27]: 1.98% | viability, T/C [28]: 2.41%

IC50 (second compound 0.0316 µM): > 100 nM | IC50 (second compound 0.1 µM): > 100 nM | IC50 (second compound 0.316 µM): > 100 nM | IC50 (second compound 1 µM): > 100 nM | IC50 (second compound 3.16 µM): 90.3 nM | IC50 (second compound 10 µM): 23.1 nM
SMILES: Cn1ncnc1[C@H]1c2n[nH]c(=O)c3cc(F)cc(c23)N[C@@H]1c1ccc(F)cc1 + CC(Nc1ncnc2nc[nH]c12)c1cc2cccc(Cl)c2c(=O)n1-c1ccccc1
viability, T/C [5]: 95.5% | viability, T/C [6]: 79.7% | viability, T/C [7]: 94% | viability, T/C [8]: 94.4% | viability, T/C [9]: 79.6% | viability, T/C [10]: 58.8% | viability, T/C [11]: 94.3% | viability, T/C [12]: 82.6% | viability, T/C [13]: 79.3% | viability, T/C [14]: 87.6% | viability, T/C [15]: 79.1% | viability, T/C [16]: 51.9% | viability, T/C [17]: 97.5% | viability, T/C [18]: 84% | viability, T/C [19]: 79.5% | viability, T/C [20]: 80% | viability, T/C [21]: 76.9% | viability, T/C [22]: 57.8% | viability, T/C [23]: 84.8% | viability, T/C [24]: 97.9% | viability, T/C [25]: 77.4% | viability, T/C [26]: 81.5% | viability, T/C [27]: 68.3% | viability, T/C [28]: 57.9% | viability, T/C (second compound 3.16 µM, first compound 0.000316 µM): 71.5% | viability, T/C (second compound 3.16 µM, first compound 0.001 µM): 85.4% | viability, T/C (second compound 3.16 µM, first compound 0.00316 µM): 82.8% | viability, T/C (second compound 3.16 µM, first compound 0.01 µM): 64.3% | viability, T/C (second compound 3.16 µM, first compound 0.0316 µM): 64.7% | viability, T/C (second compound 3.16 µM, first compound 0.1 µM): 48.2% | viability, T/C (second compound 10 µM, first compound 0.000316 µM): 55.1% | viability, T/C (second compound 10 µM, first compound 0.001 µM): 59.4% | viability, T/C (second compound 10 µM, first compound 0.00316 µM): 58.8% | viability, T/C (second compound 10 µM, first compound 0.01 µM): 63.4% | viability, T/C (second compound 10 µM, first compound 0.0316 µM): 46.5% | viability, T/C (second compound 10 µM, first compound 0.1 µM): 31.2%

IC50 (second compound 0.00316 µM): < 31.6 nM | IC50 (second compound 0.01 µM): < 31.6 nM | IC50 (second compound 0.0316 µM): < 31.6 nM | IC50 (second compound 0.1 µM): < 31.6 nM | IC50 (second compound 0.316 µM): < 31.6 nM | IC50 (second compound 1 µM): < 31.6 nM
SMILES: CC1(C)CCC(Nc2ncc(C(F)(F)F)c(-c3c[nH]c4c(P(C)(C)=O)c(C#N)ccc34)n2)CN1 (stereo unspecified) + COc1c(OCCCN2CCOCC2)ccc2c3n(c(=NC(=O)c4cnc(N)nc4)nc12)CCN3
viability, T/C [1]: 30% | viability, T/C [2]: 25.4% | viability, T/C (second compound 0.00316 µM, first compound 0.316 µM): 25.2% | viability, T/C (second compound 0.00316 µM, first compound 1 µM): 28.7% | viability, T/C (second compound 0.00316 µM, first compound 3.16 µM): 34.5% | viability, T/C (second compound 0.00316 µM, first compound 10 µM): 4.59% | viability, T/C [3]: 24.9% | viability, T/C [4]: 24.2% | viability, T/C (second compound 0.01 µM, first compound 0.316 µM): 25.5% | viability, T/C (second compound 0.01 µM, first compound 1 µM): 22.8% | viability, T/C (second compound 0.01 µM, first compound 3.16 µM): 26.4% | viability, T/C (second compound 0.01 µM, first compound 10 µM): 3.95% | viability, T/C [9]: 22% | viability, T/C [10]: 22.4% | viability, T/C (second compound 0.0316 µM, first compound 0.316 µM): 22.7% | viability, T/C (second compound 0.0316 µM, first compound 1 µM): 19.3% | viability, T/C (second compound 0.0316 µM, first compound 3.16 µM): 22.3% | viability, T/C (second compound 0.0316 µM, first compound 10 µM): 2.09% | viability, T/C [15]: 15.1% | viability, T/C [16]: 15.4% | viability, T/C (second compound 0.1 µM, first compound 0.316 µM): 17.4% | viability, T/C (second compound 0.1 µM, first compound 1 µM): 14.4% | viability, T/C (second compound 0.1 µM, first compound 3.16 µM): 18.4% | viability, T/C (second compound 0.1 µM, first compound 10 µM): 1.25% | viability, T/C [21]: 8.82% | viability, T/C [22]: 8.24% | viability, T/C (second compound 0.316 µM, first compound 0.316 µM): 8.82% | viability, T/C (second compound 0.316 µM, first compound 1 µM): 8.38% | viability, T/C (second compound 0.316 µM, first compound 3.16 µM): 8.08% | viability, T/C (second compound 0.316 µM, first compound 10 µM): 0.63% | viability, T/C [27]: 2.41% | viability, T/C [28]: 2.58% | viability, T/C (second compound 1 µM, first compound 0.316 µM): 2.51% | viability, T/C (second compound 1 µM, first compound 1 µM): 3.28% | viability, T/C (second compound 1 µM, first compound 3.16 µM): 2.74% | viability, T/C (second compound 1 µM, first compound 10 µM): 0.56%
